Measurements: patent publication US12220393B2, “Compositions and methods for the treatment of zika viral diseases” (The ProImmune Company LLC, priority 2017, dated 2025)

Legend:
[1] = system: total intracellular glutathione; assay: Total intracellular glutathione in Zika virus infected Vero cells; type: cell-based, African green monkey (Chlorocebus sp.); conditions: by 48 hours post BSO-treatment
Method: (§1) FIGS. 4A and 4B show effect of FFAAP on total intracellular GSH and Zika virus replication in Zika virus infected Vero cells (ZIKV). Vero cells, grown to approximately 90-95% confluence (mid-log phase), were treated with and grown in the presence of increasing concentrations of FFAAP for 3 days. At each time point, medium was discarded and cells were harvested to measure intracellular concentrations of total GSH. […] All experiments shown were performed in triplicates and the data shown are representative data from multiple independent experiments. Standard error bars were calculated using Microsoft Excel and significance assessments were performed using GRAPHPAD PRISM. * indicates a p-value <0.05 and >0.01; ** indicates a p-value <0.01 and >0.001; and *** indicates a p-value <0.001.
(§2) FIG. 5A-5D show effects of inhibition of glutathione biosynthesis on Zika virus replication in Vero cells. […] Standard error bars were calculated using Microsoft Excel and significance assessments were performed using GRAPHPAD PRISM. * indicates a p-value <0.05 and >0.01; ** indicates a p-value <0.01 and >0.001; and *** indicates a p-value <0.001.
(§3) Glutathione Precursors and Glutathione Assays. […] Effective blockade was assessed by measurements of intracellular reduced and oxidized glutathione in the presence of inhibitor.

Zika virus [2] = assay: Quantification of Zika virus titers in infected Vero cells; type: cell-based; conditions: BSO 200 μM, MOI 0.1
Method: as §1, §2
FFAAP treatment of cells. […] Cells infected with Zika virus were treated with the above concentration 1.5 hours post adsorption for quantification of virus titers. […]

[3] = system: total intracellular glutathione (GSH+GSSG); assay: Total intracellular glutathione in uninfected Vero cells; type: cell-based, African green monkey (Chlorocebus sp.); conditions: BSO treatment, initial studies
Method: African green monkey (Chlorocebus sp.) Vero cells, grown to approximately 90-95% confluence (mid-log phase), were treated with and grown in the presence of increasing concentrations of FFAAP for three days. At each time point, medium was discarded and cells were harvested to measure intracellular concentrations of total GSH. All experiments shown were done in triplicate and the data shown are representative data from multiple independent experiments performed. Standard error bars were calculated using MICROSOFT EXCEL and significance assessments were performed using GRAPHPAD PRISM. * indicates a p-value <0.05 and >0.01; ** indicates a p-value <0.01 and >0.001; and *** indicates a p-value <0.001.
Uninfected Vero cells were treated with 0, 2, 4, 6 mM concentrations of free-form amino acid precursors (FFAAP) for 72 hours. Vero cells infected with Zika virus were treated with the above concentration immediately for quantification of virus titers. […]
as §3
To determine the levels of intracellular glutathione in uninfected cells, FFAAP-treated and untreated cells, we quantified GSH/GSSG levels in each cell line over three days. Growth and viability of the cells were also assessed. […]

[4] = system: intracellular glutathione; assay: Intracellular glutathione in JEG-3 cells; type: cell-based, human
Method: (§4) FIGS. 6A-6D show effects of inhibition of glutathione biosynthesis on Zika virus replication in JEG-3 cells. […] All experiments were performed in triplicates and the data shown are representative data from multiple independent experiments. Standard error bars were calculated using Microsoft Excel and significance assessments were performed using GRAPHPAD PRISM. * indicates a p-value <0.05 and >0.01; ** indicates a p-value <0.01 and >0.001; and *** indicates a p-value <0.001.
FIGS. 7A-F show total intracellular GSH concentrations in various cells that were treated with BSO, FFAAP, and a combination of BSO and FFAAP at day 0 and day 2. FIGS. 7A-7C show intracellular GSH concentration in African green monkey (Chlorocebus sp.) Vero cells. […]
Glutathione Precursors and Glutathione Assays. […] Intracellular glutathione levels (GSSG/GSH) were measured to quantify the levels of newly biosynthesized intracellular glutathione with molar quantities calculated using standard curves prepared with reduced and oxidized glutathione (Enzo Life Sciences, Farmingdale, NY), Standard error of the mean (SEM) was calculated using values from triplicate samples and coefficient of variance was calculated within each sample for each specific treatment group. […] Effective blockade was assessed by measurements of intracellular reduced and oxidized glutathione in the presence of inhibitor.

Zika virus [5] = assay: Quantification of Zika virus titers in infected JEG-3 cells; type: cell-based; conditions: BSO 200 μM
Method: as §4
FFAAP treatment of cells. […] Cells infected with Zika virus were treated with the above concentration 1.5 hours post adsorption for quantification of virus titers. For plaque enumeration assay cells were treated with FFAAP at the time of adsorption and the treatment was continued for 3 days in semi-solid medium. For these assays the final concentrations in the cell culture medium of the infected and uninfected cells were 0, 2.5, 5.0, and 10 mM FFAAP from solubilized stock solution prepared for FFAAP. Inhibitory concentration (IC50) was used as per definitions provided by GRAPHPAD Software) to evaluate dose-response curves.
Approximately 95% sub-confluent Vero cells or JEG-3 cells were infected Zika in a 48-well plate. After 1.5 hours post-adsorption (HPA), virus inoculum was removed and media with or without FFAAP was added to the respective wells. […]

**Q.** For CCCCS(=N)(=O)CC[C@H](N)C(=O)O (stereo partly drawn) [BSO, buthionine-(S,R)-sulfoximine], which “intracellular levels of glutathione” value [1] is on record?
**A.** The value was “undetectable”.

**Q.** What about the “Zika virus replication in Vero cells treated with BSO” value (Zika virus [2]) of the same compound?
**A.** Its value is “Zika virus replicates even in Vero cells treated with BSO”.

**Q.** And the intracellular glutathione levels [3]?
**A.** The intracellular glutathione levels was “undetectable levels”.

**Q.** And the intracellular glutathione levels ([4]; JEG-3 cells, BSO treatment, initial studies)?
**A.** Its intracellular glutathione levels is “undetectable levels”.

**Q.** What about the “intracellular GSH synthesis” value ([4]; Zika virus infected JEG-3 cells) of the same compound?
**A.** Its value is “blocked intracellular GSH synthesis”.

**Q.** What about the “Zika virus replication on blockage of glutathione biosynthesis” value (Zika virus [5]) of the same compound?
**A.** The value was “inhibition of Zika virus replication”.
